Measurements reported in patent US10869931B2, “Polyethylene glycol-modified angiogenesis inhibitor HM-1 and application thereof” (NANJING ANJI BIOLOGICAL TECHNOLOGY CO.,LTD, priority 2016, dated 2020).
Values joined by “and” are separate entries in the source; they are usually repeats but may differ in a detail not shown here. Equal entries are not always repeated.

How the values were obtained:
[1] = system: IL-1β production by mouse peritoneal macrophages; assay: IL-1β production by mouse peritoneal macrophages (ELISA); assay type: cell-based; settings: 20 μg/mL, 48 h
Experimental: (1) IL-1β production: mice were intraperitoneally injected with 1 mL of broth (containing 6%) starch, and three days later, the mouse peritoneal macrophages were aseptically taken, washed twice with 1640 medium, and the cell concentration was adjusted to 2×10^6 cells/mL, inject into a 24-well culture plate, 1 mL per well, incubate for 3 hours in a cell culture incubator, shake once every 30 minutes, and allow the cells to fully adhere. Then, it was washed twice with the culture solution to remove unattached cells. The blank group was added with PBS, the positive group was added with the positive drug dexamethasone (Dex), the model group was not administered, to the experimental group was added low, medium and high three concentrations of mPEG-HM-1, and the culture was continued for 48 hours after the administration, 1000 r/min. Centrifuge for 15 min. The supernatant was taken as a sample for testing activity of IL-1β.
(2) Determination of IL-1β content: using R&D mouse IL-1β enzyme-linked immunosorbent assay kit, according to the kit instructions as follows: respectively, the tested samples and different concentrations of standard products, sealed with sealing tape the reaction well and incubated at 37° C. for 90 min; the plate was washed four times; the biotinylated antibody working solution (100 μL/well) was added, and the reaction well was sealed with sealing paper, incubated at 37° c. for 60 min; the plate was washed four times; Add the enzyme conjugate working solution (100 μL/well), seal the reaction well with sealing paper, incubate at 37° C. for 30 min; wash the plate four times; add color reagent (100 μL/well), incubate at 37° C. 10-20 min, add stop solution (100 μL/well), mix and measure OD450 value.

mouse spleen lymphocytes = assay: ConA-stimulated mouse spleen lymphocyte proliferation (MTT); assay type: cell-based; settings: 20 μg/mL, ConA 5 μg/mL, 48 h
Experimental: Tris-NH4Cl was used to break the red blood cells, and the cells were allowed to stand in an ice water bath for 4 min, centrifuged (1000 rpm×5 min), the supernatant was discarded, and the cells were washed twice with sterile PBS. Finally, cells were suspended in RPMI 1640 medium (5 mL) supplemented with 10% calf serum, counted, adjusted to a cell concentration of 5×10^6/mL, and cultured in a 96-well culture plate The test group consisted of blank control group, concanavalin A (ConA) group, dexamethasone (Dex) group (0.02 mg/mL) and mPEG-HM-1 group. […] The cells were cultured in a 37° C. cell culture chamber for 48 h. After the completion of the culture, 20 μL of MTT was added to each well, and the culture was continued for 4 h. Finally, all the solutions in each well were discarded, 100 μL of DMSO was added to each well, and the mixture was shaken and detected by a microplate reader OD value at 570 nm, 5 parallels per hole.

[2] = system: Esophageal cancer tumor cells; assay: MTT proliferation inhibition, esophageal cancer cells; assay type: cell-based, human; set-up: concentration or dose not given beside the values; settings: 48 h
Experimental: (§1) The activity of mPEG-HM-1 to inhibit the growth of various tumor cells was examined by MTT assay. The tumor cells were cultured to a concentration of 90% or more in a 37° C., 5% CO2 incubator and collected by trypsinization. The cells were resuspended in the culture medium and counted under a microscope to adjust the cell concentration to 2×10^4 cells/mL, the cell suspension was inoculated into a 96-well plate at 100 μL/well and incubated overnight at 37° C. in a 5% CO2 incubator. mPEG-HM-1 was diluted with the culture solution to each predetermined concentration. Docetaxel is diluted to the final concentration with the culture medium. After the cells were fully attached, each dilution was added to a 96-well plate (100 μL/well). The mPEG-HM-1 dilution was added as a drug-administered group, and docetaxel was added as a positive control group, and a culture solution without any drug was used as a negative control group. Incubate for 48 h at 37° C. in a 5% CO2 incubator. 5 mg/mL of MTT was added to a 96-well plate at 20 μL per well, and incubation was continued for 4 hours. The medium was aspirated, dissolved in 150 μL of DMSO per well, and gently mixed by shaking for 10 min. The absorbance was measured at a measurement wavelength of 570 nm and a reference wavelength of 630 nm using a microplate reader, and the rate of growth inhibition (proliferation inhibition, PI) was calculated. The formula is as follows: PI (%)=1−administration group/negative group
(§2) The test was repeated 3 times independently, and the results obtained by the test were expressed as mean±SD, and the test results are shown in Table 15 to Table 18.

[3] = system: Thyroid cancer tumor cells; assay: MTT proliferation inhibition, thyroid cancer cells; assay type: cell-based, human; set-up: concentration or dose not given beside the values; settings: 48 h
Experimental: as §1, §2

[4] = system: Gastric cancer tumor cells; assay: MTT proliferation inhibition, gastric cancer cells; assay type: cell-based, human; set-up: concentration or dose not given beside the values; settings: 48 h
Experimental: as §1, §2

[5] = system: Kidney cancer tumor cells; assay: MTT proliferation inhibition, kidney cancer cells; assay type: cell-based, human; set-up: concentration or dose not given beside the values; settings: 48 h
Experimental: as §1, §2

[6] = system: Uterine cancer tumor cells; assay: MTT proliferation inhibition, uterine cancer cells; assay type: cell-based, human; set-up: concentration or dose not given beside the values; settings: 48 h
Experimental: as §1, §2

[7] = system: Prostate cancer tumor cells; assay: MTT proliferation inhibition, prostate cancer cells; assay type: cell-based, human; set-up: concentration or dose not given beside the values; settings: 48 h
Experimental: as §1, §2

[8] = system: Colorectal cancer tumor cells; assay: MTT proliferation inhibition, colorectal cancer cells; assay type: cell-based, human; set-up: concentration or dose not given beside the values; settings: 48 h
Experimental: as §1, §2

Lung cancer tumor cells = assay: MTT proliferation inhibition, lung cancer cells; assay type: cell-based, human; set-up: concentration or dose not given beside the values; settings: 48 h
Experimental: as §1, §2

[9] = system: Bladder Cancer tumor cells; assay: MTT proliferation inhibition, bladder cancer cells; assay type: cell-based, human; set-up: concentration or dose not given beside the values; settings: 48 h
Experimental: as §1, §2

[10] = system: Ovarian cancer tumor cells; assay: MTT proliferation inhibition, ovarian cancer cells; assay type: cell-based, human; set-up: concentration or dose not given beside the values; settings: 48 h
Experimental: as §1, §2

[11] = system: Breast cancer tumor cells; assay: MTT proliferation inhibition, breast cancer cells; assay type: cell-based, human; set-up: concentration or dose not given beside the values; settings: 48 h
Experimental: as §1, §2

[12] = system: Cervical cancer tumor cells; assay: MTT proliferation inhibition, cervical cancer cells; assay type: cell-based, human; set-up: concentration or dose not given beside the values; settings: 48 h
Experimental: as §1, §2

Melanoma tumor cells = assay: MTT proliferation inhibition, melanoma cells; assay type: cell-based, human; set-up: concentration or dose not given beside the values; settings: 48 h
Experimental: as §1, §2

Hemangioma tumor cells = assay: MTT proliferation inhibition, hemangioma cells; assay type: cell-based, human; set-up: concentration or dose not given beside the values; settings: 48 h
Experimental: as §1, §2

[13] = system: Head and neck cancer tumor cells; assay: MTT proliferation inhibition, head and neck cancer cells; assay type: cell-based, human; set-up: concentration or dose not given beside the values; settings: 48 h
Experimental: as §1, §2

sarcoma tumor cells = assay: MTT proliferation inhibition, sarcoma cells; assay type: cell-based, human; set-up: concentration or dose not given beside the values; settings: 48 h
Experimental: as §1, §2

Liver cancer tumor cells = assay: MTT proliferation inhibition, liver cancer cells; assay type: cell-based, human; set-up: concentration or dose not given beside the values; settings: 48 h
Experimental: as §1, §2

Brain tumor cells = assay: MTT proliferation inhibition, brain tumor cells; assay type: cell-based, human; set-up: concentration or dose not given beside the values; settings: 48 h
Experimental: as §1, §2

[14] = system: Pancreatic cancer tumor cells; assay: MTT proliferation inhibition, pancreatic cancer cells; assay type: cell-based, human; set-up: concentration or dose not given beside the values; settings: 48 h
Experimental: as §1, §2

Structure (SMILES): C[C@@H]1C[C@H]2[C@@H]3CCC4=CC(=O)C=C[C@]4(C)[C@@]3(F)[C@@H](O)C[C@]2(C)[C@@]1(O)C(=O)CO [Dex, dexamethasone, reference compound]
- IL-1β [1]: 361.03 ± 18.27 pg/mL and 368.23 ± 18.27 pg/mL and 361.45 ± 19.17 pg/mL and 359.92 ± 19.17 pg/mL
- Inhibition Rate of IL-1β production [1]: 60.24% and 60.58% and 60.97%
- inhibition at 20 µg/mL ([1]; Mus musculus, Peritoneal macrophage, read-out: Inhibition Rate of IL-1β production): 61.5%
- A570 nm/A630 nm (mouse spleen lymphocytes): 0.3809 ± 0.1036 and 0.3832 ± 0.1042 and 0.3715 ± 0.1266 and 0.3905 ± 0.1094
- Inhibition Rate of spleen lymphocyte proliferation (mouse spleen lymphocytes): 44.66% and 45.92% and 43.72%
- inhibition at 20 µg/mL (mouse spleen lymphocytes; Mus musculus, Lymphocyte, read-out: Inhibition Rate of spleen lymphocyte proliferation): 44.8%

Structure (SMILES): CC(=O)O[C@@]12CO[C@@H]1C[C@H](O)[C@@]1(C)C(=O)[C@H](O)C3=C(C)[C@@H](OC(=O)[C@H](O)[C@@H](NC(=O)OC(C)(C)C)c4ccccc4)C[C@@](O)([C@@H](OC(=O)c4ccccc4)[C@H]21)C3(C)C [Docetaxel, reference compound]
- rate of growth inhibition [2]: 60.18 ± 17.02%
- rate of growth inhibition [3]: 56.21 ± 14.28%
- rate of growth inhibition [4]: 77.34 ± 22.18%
- rate of growth inhibition [5]: 72.93 ± 18.31%
- rate of growth inhibition [6]: 80.25 ± 22.18%
- rate of growth inhibition [7]: 45.62 ± 14.03%
- rate of growth inhibition [8]: 74.59 ± 20.33%
- rate of growth inhibition (Lung cancer tumor cells): 68.23 ± 18.32%
- rate of growth inhibition [9]: 46.72 ± 13.65%
- rate of growth inhibition [10]: 85.12 ± 19.39%
- rate of growth inhibition [11]: 65.31 ± 21.44%
- rate of growth inhibition [12]: 80.21 ± 19.54%
- rate of growth inhibition (Melanoma tumor cells): 83.49 ± 23.27%
- rate of growth inhibition (Hemangioma tumor cells): 56.92 ± 16.76%
- rate of growth inhibition [13]: 49.23 ± 10.01%
- rate of growth inhibition (sarcoma tumor cells): 51.31 ± 10.49%
- rate of growth inhibition (Liver cancer tumor cells): 66.70 ± 17.25%
- rate of growth inhibition (Brain tumor cells): 59.23 ± 16.21%
- rate of growth inhibition [14]: 71.13 ± 20.13%
